In patent publication US9926324B2, “Heteroaromatic compounds as PI3 kinase modulators and methods of use” (Calitor Sciences, LLC, priority 2012, dated 2018):

Legend:
[1] = Pharmacokinetic profiles in rats after intravenous and oral administration; type: in vivo; conditions: for F: oral dose generally 5 or 10 mg/kg; for AUC(0-t) / half-life / Vd: rat, plasma; for Vd: read-out: Vss
Protocol: (§1) The compounds disclosed herein are assessed in pharmacokinetic studies in mice, rats, dogs or monkeys. The compounds are administered as a water solution, 2% HPMC+1% TWEEN® 80 in water solution, 5% DMSO+5% solutol in saline, 4% MC suspension or capsule. For the intravenous administration, the animals are generally given at 1 or 2 mg/kg dose. For the oral (p.o.) dosing, mice and rats are generally given 5 or 10 mg/kg dose, and dogs and monkeys are generally given 10 mg/kg dose. The blood samples (0.3 mL) are drawn at 0.25, 0.5, 1.0, 2.0, 3.0, 4.0, 6.0, 8.0, 12 and 24 h time points or 0.083, 0.25, 0.5, 1.0, 2.0, 4.0, 6.0, 8.0 and 24 h time points and centrifuged at 3,000 or 4000 rpm for 2 to 10 min. The plasma solutions are collected, stored at −20° C. or −70° C. until analyzed by LC/MS/MS as described above.

[2] = Pharmacokinetic profiles in mice after intravenous and oral administration; type: in vivo; conditions: Mouse; for F: oral dose generally 5 or 10 mg/kg; for AUC(0-t) / half-life / Vd: plasma; for Vd: read-out: Vss
Protocol: as §1

[3] = target: T1, PI3K p110α/p85α (h) (Homo sapiens, UniProt P42336); test: PI3K p110α/p85α (h) non-radioactive HTRF assay; type: biochemical
T1 construct: purchased Millipore UK Ltd (assay service)
Protocol: PI3K p110α/p85α (h) is incubated in assay buffer containing 10 μM phosphatidylinositol 4,5-bisphosphate and MgATP (concentration as required). The reaction is initiated by the addition of the ATP solution. After incubation for 30 minutes at room temperature, the reaction is stopped by the addition of stop solution containing EDTA and biotinylated phosphatidylinositol-3,4,5-trisphosphate. Finally, detection buffer is added, which contains europium-labelled anti-GST monoclonal antibody, GST-tagged GRP1 PH domain and streptavidin allophycocyanin. The plate is then read in timeresolved fluorescence mode and the homogenous time-resolved fluorescence (HTRF) signal is determined according to the formula HTRF=10000×(Em665 nm/Em620 nm).
(§2) The kinase assays described herein were performed at Millipore UK Ltd, Dundee Technology Park, Dundee DD2 1SW, UK.

[4] = target: T2, mTOR (h) (Homo sapiens, UniProt P42345); test: mTOR (h) kinase assay (33P-ATP, filter); type: biochemical
T2 construct: purchased Millipore UK Ltd (assay service)
Protocol: mTOR (h) is incubated with 50 mM HEPES pH 7.5, 1 mM EDTA, 0.01% Tween 20, 2 mg/mL substrate, 3 mM Manganese Chloride and [γ-^33P-ATP] (specific activity approx. 500 cpm/pmol, concentration as required). The reaction is initiated by the addition of the MnATP mix. After incubation for 40 minutes at room temperature, the reaction is stopped by the addition of 3% phosphoric acid solution. 10 μL of the reaction is then spotted onto a P30 filtermat and washed three times for 5 minutes in 75 mM phosphoric acid and once in methanol prior to drying and scintillation counting.
as §2

[5] = Pharmacokinetic profiles in monkeys after intravenous and oral administration; type: in vivo; conditions: Monkey; for F: iv dose 1 mg/kg, oral dose generally 10 mg/kg; for Cl/F / AUC(0-t) / half-life / Vd: iv dosing 1 mg/kg; for AUC(0-t) / half-life / Vd: plasma; for Vd: read-out: Vss
Protocol: as §1

[6] = Pharmacokinetic profiles in dogs after intravenous and oral administration; type: in vivo; conditions: Dog; for F: iv dose 1 mg/kg, oral dose generally 10 mg/kg; for Clearance (CL) / AUC(0-t) / half-life / Vd: iv dosing 1 mg/kg; for AUC(0-t) / half-life / Vd: plasma; for Vd: read-out: Vss
Protocol: as §1

T1 sequence (P42336 whole entry): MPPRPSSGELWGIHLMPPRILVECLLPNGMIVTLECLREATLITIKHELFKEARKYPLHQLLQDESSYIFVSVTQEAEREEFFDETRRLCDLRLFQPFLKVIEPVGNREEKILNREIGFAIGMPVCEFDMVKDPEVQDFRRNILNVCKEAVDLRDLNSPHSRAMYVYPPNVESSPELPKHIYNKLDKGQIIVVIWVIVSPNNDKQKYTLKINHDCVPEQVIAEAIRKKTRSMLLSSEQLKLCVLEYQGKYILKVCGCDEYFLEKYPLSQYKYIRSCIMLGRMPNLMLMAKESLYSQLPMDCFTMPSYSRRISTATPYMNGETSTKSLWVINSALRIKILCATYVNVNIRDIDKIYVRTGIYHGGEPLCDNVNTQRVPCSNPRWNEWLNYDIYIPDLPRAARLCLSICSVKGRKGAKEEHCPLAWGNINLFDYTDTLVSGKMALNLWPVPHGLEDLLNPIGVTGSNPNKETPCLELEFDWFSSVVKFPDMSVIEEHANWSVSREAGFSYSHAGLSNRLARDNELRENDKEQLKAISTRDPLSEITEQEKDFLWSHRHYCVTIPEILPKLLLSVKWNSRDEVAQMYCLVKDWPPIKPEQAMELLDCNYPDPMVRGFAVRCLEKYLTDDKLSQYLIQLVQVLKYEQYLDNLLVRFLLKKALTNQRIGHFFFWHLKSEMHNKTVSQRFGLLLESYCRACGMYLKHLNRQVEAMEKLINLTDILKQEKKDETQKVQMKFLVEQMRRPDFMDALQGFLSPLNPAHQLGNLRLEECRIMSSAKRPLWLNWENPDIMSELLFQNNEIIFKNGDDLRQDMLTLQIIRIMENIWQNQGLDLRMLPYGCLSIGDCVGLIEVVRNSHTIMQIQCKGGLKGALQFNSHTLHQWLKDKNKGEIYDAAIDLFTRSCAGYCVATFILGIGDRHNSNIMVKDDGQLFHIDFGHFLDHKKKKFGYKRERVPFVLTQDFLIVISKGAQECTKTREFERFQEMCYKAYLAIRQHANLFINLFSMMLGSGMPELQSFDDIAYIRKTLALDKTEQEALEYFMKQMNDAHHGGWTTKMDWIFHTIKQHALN
T1 sequence (P27986 whole entry partner): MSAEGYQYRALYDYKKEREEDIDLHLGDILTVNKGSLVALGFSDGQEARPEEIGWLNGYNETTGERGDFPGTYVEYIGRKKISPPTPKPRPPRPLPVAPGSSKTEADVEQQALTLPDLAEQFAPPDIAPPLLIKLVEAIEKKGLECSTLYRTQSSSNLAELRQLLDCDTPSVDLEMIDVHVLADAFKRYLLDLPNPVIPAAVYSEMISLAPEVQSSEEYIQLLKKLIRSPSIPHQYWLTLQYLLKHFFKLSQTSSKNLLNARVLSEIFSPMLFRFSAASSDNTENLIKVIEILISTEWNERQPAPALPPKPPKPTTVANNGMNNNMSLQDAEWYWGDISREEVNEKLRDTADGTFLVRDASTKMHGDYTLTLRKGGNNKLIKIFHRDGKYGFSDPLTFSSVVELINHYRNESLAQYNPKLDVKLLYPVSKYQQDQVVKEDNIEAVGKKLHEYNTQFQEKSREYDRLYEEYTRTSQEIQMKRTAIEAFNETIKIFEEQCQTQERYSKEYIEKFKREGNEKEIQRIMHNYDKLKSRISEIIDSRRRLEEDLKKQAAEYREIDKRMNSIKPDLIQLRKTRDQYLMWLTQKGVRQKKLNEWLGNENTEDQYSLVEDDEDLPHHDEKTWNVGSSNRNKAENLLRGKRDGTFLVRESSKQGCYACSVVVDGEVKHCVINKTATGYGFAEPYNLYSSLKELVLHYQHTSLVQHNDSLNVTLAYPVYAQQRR

SMILES | F ([1]; iv dose 1 mg/kg) | Cl/F ([1]; iv dosing 1 mg/kg) | AUC(0-t) ([1]; iv dosing 1 mg/kg) | half-life ([1]; iv dosing 1 mg/kg) | Vd ([1]; iv dosing 1 mg/kg) | F ([2]; iv dose 2 mg/kg) | Cl/F ([2]; iv dosing 2 mg/kg) | AUC(0-t) ([2]; iv dosing 2 mg/kg) | IC50 [3] | IC50 [4] | F [5] | Cl/F [5] | AUC(0-t) [5] | half-life [5] | Vd [5] | F [6] | Clearance (CL) [6] | AUC(0-t) [6] | half-life [6] | Vd [6] | also measured
COc1ncc(-c2ccc3ncc(C#CCO)n3n2)cc1NS(=O)(=O)c1ccc(F)cc1F [Ex. 9, 2,4-difluoro-N-(5-(3-(3-hydroxyprop-1-yn-1-yl)imidazo[1,2-b]pyridazin-6-yl)-2-methoxypyridin-3-yl)benzenesulfonamide] | 104.2% | 2.33 mL/min/kg | 7490 ng·h/mL | 4.1 h | 0.37 L/kg | 118.7% | 6.17 mL/min/kg | 5330 ng·h/mL | 2 nM | 9 nM | 27.3% | 7.5 mL/min/kg | 2370 ng·h/mL | 3.59 h | 0.39 L/kg | 44.2% | 6.17 mL/min/kg | 2750 ng·h/mL | 0.73 h | 0.31 L/kg | half-life ([2]; iv dosing 2 mg/kg): 4.02 h; Vd ([2]; iv dosing 2 mg/kg): 0.57 L/kg
COc1ncc(-c2ccc3ncc(C#CCO)n3c2)cc1NS(=O)(=O)c1ccc(F)cc1F [Ex. 15, 2,4-difluoro-N-(5-(3-(3-hydroxyprop-1-yn-1-yl)imidazo[1,2-a]pyridin-6-yl)-2-methoxypyridin-3-yl)benzenesulfonamide] |  |  |  |  |  |  |  |  | 2 nM | 34 nM | 55.4% | 5.33 mL/min/kg | 3200 ng·h/mL | 5.89 h | 0.76 L/kg | 108.5% | 7.67 mL/min/kg | 2170 ng·h/mL | 0.74 h | 0.37 L/kg | F ([1]; iv dose 2 mg/kg): 97.0%; Cl/F ([1]; iv dosing 2 mg/kg): 1.3 mL/min/kg; AUC(0-t) ([1]; iv dosing 2 mg/kg): 25600 ng·h/mL; half-life ([1]; iv dosing 2 mg/kg): 3.14 h; Vd ([1]; iv dosing 2 mg/kg): 0.22 L/kg; F ([2]; iv dose 1 mg/kg): 116.9%; AUC(0-t) ([2]; iv dosing 1 mg/kg): 20000 ng·h/mL; half-life ([2]; iv dosing 1 mg/kg): 2.83 h
COc1ncc(-c2ccc3ncc(C#CC(C)O)n3c2)cc1NS(=O)(=O)c1ccc(F)cc1F (centres unmarked) [Ex. 16, 2,4-difluoro N (5 (3 (3 hydroxybut-1-yn-1-yl)imidazo[1,2-a]pyridin-6-yl)-2-methoxypyridin-3-yl)benzenesulfonamide] | 99.77% | 1.67 mL/min/kg | 19400 ng·h/mL | 2.65 h | 0.35 L/kg |  |  |  | 2 nM | 31 nM |  |  |  |  |  |  |  |  |  |  | 
COc1ncc(-c2ccc3ncc(C#N)n3n2)cc1NS(=O)(=O)c1ccc(F)cc1F [Ex. 24, N-(5-(3-cyanoimidazo[1,2-b]pyridazin-6-yl)-2-methoxypyridin-3-yl)-2,4-difluorobenzenesulfonamide] |  |  |  |  |  | 72.6% | 0.33 mL/min/kg | 96100 ng·h/mL | 2 nM | 3 nM | 69.8% | 3.67 mL/min/kg | 4640 ng·h/mL | 6.05 h | 0.64 L/kg | 108.5% | 9 mL/min/kg | 1840 ng·h/mL | 0.57 h | 0.37 L/kg | F ([1]; iv dose 2 mg/kg): 108%; Cl/F ([1]; iv dosing 2 mg/kg): 4 mL/min/kg; AUC(0-t) ([1]; iv dosing 2 mg/kg): 8400 ng·h/mL; half-life ([1]; iv dosing 2 mg/kg): 3.06 h; Vd ([1]; iv dosing 2 mg/kg): 0.55 L/kg; half-life ([2]; iv dosing 2 mg/kg): 5.25 h; Vd ([2]; iv dosing 2 mg/kg): 0.14 L/kg
